Assay results as given in ChEMBL document CHEMBL3421558, “Structure activity relationship of substituted 1,5-naphthyridine analogs of oxabicyclooctane-linked novel bacterial topoisomerase inhibitors as broad-spectrum antibacterial agents (Part-4)” (Bioorg Med Chem Lett, 2015).
≈ marks a conversion by molar mass, not a printed value.

What was measured:
Format in all cases: functional
[1] = system: Staphylococcus aureus; assay: Antimicrobial activity against Staphylococcus aureus Smith by micro broth dilution or agar based method
[2] = system: Staphylococcus aureus; assay: Antimicrobial activity against methicillin-resistant Staphylococcus aureus OIT971 by micro broth dilution or agar based method
[3] = system: Streptococcus pneumoniae; assay: Antimicrobial activity against Streptococcus pneumoniae IID553 by micro broth dilution or agar based method
[4] = system: Enterococcus faecium; assay: Antimicrobial activity against VanA expressing vancomycin-resistant Enterococcus faecium by micro broth dilution or agar based method
[5] = system: Escherichia coli; assay: Antimicrobial activity against Escherichia coli ATCC 25922 by micro broth dilution or agar based method
[6] = system: Acinetobacter baumannii; assay: Antimicrobial activity against Acinetobacter baumannii IID876 by micro broth dilution or agar based method
[7] = system: Pseudomonas aeruginosa; assay: Antimicrobial activity against Pseudomonas aeruginosa PAO1 by micro broth dilution or agar based method
[8] = Staphylococcus aureus, Smith, read-out: MIC
[9] = Streptococcus pneumoniae, IID553, read-out: MIC
[10] = Enterococcus faecium, read-out: MIC
[11] = Escherichia coli, ATCC 25922, read-out: MIC
[12] = Acinetobacter baumannii, IID876, read-out: MIC
[13] = Pseudomonas aeruginosa, PAO1, read-out: MIC

SMILES	MIC [1, 8] [µg/mL]	MIC [2] [µg/mL]	MIC [3, 9] [µg/mL]	MIC [4, 10] [µg/mL]	MIC [5, 11] [µg/mL]	MIC [6, 12] [µg/mL]	MIC [7, 13] [µg/mL]	MIC [1] [µg/mL]	MIC [3] [µg/mL]	MIC [4] [µg/mL]	MIC [5] [µg/mL]	MIC [6] [µg/mL]	MIC [7] [µg/mL]
COc1cc(OC)c2nccc(CCC34CCC(NCc5ccc6c(n5)NC(=O)CO6)(CC3)CO4)c2n1	0.5 (≈ 0.989 µM)	0.25 (≈ 0.494 µM)	8 (≈ 15.8 µM)	8 (≈ 15.8 µM)	32 (≈ 63.3 µM)	8 (≈ 15.8 µM)	64 (≈ 127 µM)	–	–	–	–	–	–
COc1cc(CCC23CCC(NCc4ccc5c(n4)NC(=O)CO5)(CC2)CO3)c2nc(OC)ccc2n1	4 (≈ 7.91 µM)	1 (≈ 1.98 µM)	8 (≈ 15.8 µM)	8 (≈ 15.8 µM)	8 (≈ 15.8 µM)	8 (≈ 15.8 µM)	8 (≈ 15.8 µM)	–	–	–	–	–	–
Cc1nc2c(CCC34CCC(NCc5ccc6c(n5)NC(=O)CO6)(CC3)CO4)ccnc2cc1C#N	16 (≈ 33 µM)	16 (≈ 33 µM)	16 (≈ 33 µM)	16 (≈ 33 µM)	16 (≈ 33 µM)	16 (≈ 33 µM)	16 (≈ 33 µM)	–	–	–	–	–	–
COc1cc2nccc(CCC34CCC(NCc5ccc6c(n5)NC(=O)CO6)(CC3)CO4)c2nc1C#N	8 (≈ 16 µM)	2 (≈ 4 µM)	32 (≈ 63.9 µM)	32 (≈ 63.9 µM)	32 (≈ 63.9 µM)	32 (≈ 63.9 µM)	32 (≈ 63.9 µM)	–	–	–	–	–	–
COc1cc2nccc(CCC34CCC(NCc5ccc6c(n5)NC(=O)CO6)(CC3)CO4)c2nc1C(=O)O	16 (≈ 30.8 µM)	16 (≈ 30.8 µM)	16 (≈ 30.8 µM)	16 (≈ 30.8 µM)	16 (≈ 30.8 µM)	16 (≈ 30.8 µM)	16 (≈ 30.8 µM)	–	–	–	–	–	–
Cc1cc(C#N)nc2c(CCC34CCC(NCc5ccc6c(n5)NC(=O)CO6)(CC3)CO4)ccnc12	1 (≈ 2.06 µM)	0.5 (≈ 1.03 µM)	8 (≈ 16.5 µM)	8 (≈ 16.5 µM)	16 (≈ 33 µM)	4 (≈ 8.25 µM)	64 (≈ 132 µM)	–	–	–	–	–	–
CN(C)c1nc2c(CCC34CCC(NCc5ccc6c(n5)NC(=O)CO6)(CC3)CO4)ccnc2cc1C(F)(F)F	8 (≈ 14.4 µM)	8 (≈ 14.4 µM)	8 (≈ 14.4 µM)	8 (≈ 14.4 µM)	8 (≈ 14.4 µM)	8 (≈ 14.4 µM)	8 (≈ 14.4 µM)	–	–	–	–	–	–
CN(C)c1nc2c(CCC34CCC(NCc5ccc6c(n5)NC(=O)CO6)(CC3)CO4)ccnc2cc1F	1 (≈ 1.97 µM)	1 (≈ 1.97 µM)	16 (≈ 31.6 µM)	16 (≈ 31.6 µM)	16 (≈ 31.6 µM)	16 (≈ 31.6 µM)	16 (≈ 31.6 µM)	–	–	–	–	–	–
O=C1COc2ccc(CNC34CCC(CCc5ccnc6ccc(C(F)(F)F)nc56)(CC3)OC4)nc2N1	2 (≈ 3.89 µM)	1 (≈ 1.95 µM)	32 (≈ 62.3 µM)	16 (≈ 31.2 µM)	32 (≈ 62.3 µM)	8 (≈ 15.6 µM)	64 (≈ 125 µM)	–	–	–	–	–	–
O=C1COc2ccc(CNC34CCC(CCc5ccnc6cc(C(F)(F)F)cnc56)(CC3)OC4)nc2N1	64 (≈ 125 µM)	64 (≈ 125 µM)	64 (≈ 125 µM)	64 (≈ 125 µM)	64 (≈ 125 µM)	64 (≈ 125 µM)	64 (≈ 125 µM)	–	–	–	–	–	–
COc1cnc2c(CCC34CCC(NCc5ccc6c(n5)NC(=O)CO6)(CC3)CO4)ccnc2c1	32 (≈ 67.3 µM)	8 (≈ 16.8 µM)	64 (≈ 135 µM)	64 (≈ 135 µM)	64 (≈ 135 µM)	64 (≈ 135 µM)	64 (≈ 135 µM)	–	–	–	–	–	–
O=C1COc2ccc(CNC34CCC(CCc5ccnc6cc(Cl)cnc56)(CC3)OC4)nc2N1	64 (≈ 133 µM)	16 (≈ 33.3 µM)	64 (≈ 133 µM)	64 (≈ 133 µM)	64 (≈ 133 µM)	64 (≈ 133 µM)	64 (≈ 133 µM)	–	–	–	–	–	–
O=C1COc2ccc(CNC34CCC(CCc5ccnc6cc(F)cnc56)(CC3)OC4)nc2N1	16 (≈ 34.5 µM)	8 (≈ 17.3 µM)	32 (≈ 69 µM)	32 (≈ 69 µM)	32 (≈ 69 µM)	16 (≈ 34.5 µM)	32 (≈ 69 µM)	–	–	–	–	–	–
COc1ccc2ncc(C#N)c(CC(O)C34CCC(NCc5ccc6c(n5)NC(=O)CO6)(CC3)CO4)c2n1 (single isomer, unassigned; (-))	–	–	–	–	–	–	–	0.063 (≈ 0.122 µM)	0.25 (≈ 0.484 µM)	2 (≈ 3.87 µM)	4 (≈ 7.74 µM)	1 (≈ 1.94 µM)	16 (≈ 31 µM)
